Measured values from patent US10167284B2, “Spirocyclic compounds as agonists of the muscarinic M1 receptor and/or M4 receptor” (HEPTARES THERAPEUTICS LIMITED, priority 2015, dated 2019).

Tests used:
[1] = tested on: d-amphetamine induced hyperactivity in rats; assay: d-Amphetamine-induced hyperactivity in rats; type: in vivo; settings: positive control dose, previously observed
Method: Effect of a Novel Test Compound and Xanomeline on d-Amphetamine-Induced Hyperactivity in Rats
The aim of the study is to examine the effect of a novel test compound on d-amphetamine induced hyperactivity in rats. Schizophrenia is a complex multifactorial disease that cannot be fully represented by a single experimental procedure. Antipsychotic-like behaviour was assessed in rats by the inhibition of hyperactivity (or hyperlocomotion) elicited by d-amphetamine. This procedure is sensitive to clinically relevant dopamine receptor antagonists and is therefore considered suitable for comparing muscarinic agonists that influence dopaminergic signalling. […] Statistical analysis typically involved three-way analysis of covariance or robust regression with treatment, day and rack as factors and activity during the 30 minutes prior to treatment as a covariate, followed by appropriate multiple comparison tests. A P value of <0.05 was considered statistically significant and is marked accordingly in all subsequent figures.

[2] = target: T1, human muscarinic M1 receptor (Homo sapiens, UniProt P11229); assay: Alphascreen Surefire phospho-ERK1/2 functional assay, M1; type: cell-based; settings: for M1 % Emax cf. ACh / EC50: CHO cells stably expressing human M1; for M1 % Emax cf. ACh / Emax: Emax relative to ACh; for EC50: phospho-ERK1/2, read-out: pEC50 M1 (converted); for Emax: CHO, read-out: M1 % Emax cf. ACh, CHO cells stably expressing human M1
T1 construct: expressed in transfected cells
T1 sequence (P11229 1-460): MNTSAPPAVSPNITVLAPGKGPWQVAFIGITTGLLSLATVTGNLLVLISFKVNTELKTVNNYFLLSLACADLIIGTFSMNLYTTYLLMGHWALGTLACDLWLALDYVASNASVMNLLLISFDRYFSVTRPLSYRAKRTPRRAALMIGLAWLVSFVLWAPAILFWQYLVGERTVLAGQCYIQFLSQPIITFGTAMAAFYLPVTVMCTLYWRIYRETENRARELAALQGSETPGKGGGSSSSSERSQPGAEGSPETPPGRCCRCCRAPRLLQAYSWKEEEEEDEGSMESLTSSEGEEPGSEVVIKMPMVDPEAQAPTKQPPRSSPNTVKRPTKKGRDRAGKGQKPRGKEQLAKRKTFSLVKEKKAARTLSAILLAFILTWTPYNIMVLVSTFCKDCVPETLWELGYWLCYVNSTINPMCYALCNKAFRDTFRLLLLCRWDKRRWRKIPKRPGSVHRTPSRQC
Method: (§1) CHO cells stably expressing the human muscarinic M1, M2, M3 or M4 receptor were plated (25K/well) onto 96-well tissue culture plates in MEM-alpha+10% dialysed FBS. Once adhered, cells were serum-starved overnight. Agonist stimulation was performed by the addition of 5 μL agonist to the cells for 5 min (37° C.). Media was removed and 50 μL of lysis buffer added. After 15 min, a 4 μL sample was transferred to 384-well plate and 7 μL of detection mixture added. Plates were incubated for 2 h with gentle agitation in the dark and then read on a PHERAstar plate reader.
(§2) pEC50 and Emax figures were calculated from the resulting data for each receptor subtype.

[3] = target: T2, human muscarinic M4 receptor (Homo sapiens, UniProt P08173); assay: Alphascreen Surefire phospho-ERK1/2 functional assay, M4; type: cell-based; settings: for M4 % Emax cf. ACh / Emax: Emax relative to ACh; for EC50: read-out: pEC50 M4 (converted); for Emax: CHO, read-out: M4 % Emax cf. ACh, CHO cells stably expressing human M4
T2 construct: expressed in transfected cells
T2 sequence (P08173 1-479): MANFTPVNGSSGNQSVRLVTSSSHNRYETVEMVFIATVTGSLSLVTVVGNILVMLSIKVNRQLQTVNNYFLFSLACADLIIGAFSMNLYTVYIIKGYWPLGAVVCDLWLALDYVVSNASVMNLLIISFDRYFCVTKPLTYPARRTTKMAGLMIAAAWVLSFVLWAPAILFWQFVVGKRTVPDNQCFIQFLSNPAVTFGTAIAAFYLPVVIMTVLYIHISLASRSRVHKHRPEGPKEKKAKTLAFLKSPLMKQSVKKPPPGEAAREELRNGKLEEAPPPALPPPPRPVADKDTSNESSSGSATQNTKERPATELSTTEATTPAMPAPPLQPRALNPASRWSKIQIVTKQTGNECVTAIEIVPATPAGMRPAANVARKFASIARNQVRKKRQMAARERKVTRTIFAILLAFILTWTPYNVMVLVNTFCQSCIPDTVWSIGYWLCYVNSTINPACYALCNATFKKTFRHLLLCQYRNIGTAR
Method: as §1, §2

[4] = target: T3, human muscarinic M2 receptor (Homo sapiens, UniProt P08172); assay: Alphascreen Surefire phospho-ERK1/2 functional assay, M2; settings: for M2 % Emax cf. ACh / pEC50 M2: CHO cells stably expressing human M2; for M2 % Emax cf. ACh / Emax: Emax relative to ACh; for pEC50 M2 / EC50: phospho-ERK1/2; for Emax: CHO, read-out: M2 % Emax cf. ACh, CHO cells stably expressing human M2; for EC50: pEC50 M2, CHO cells stably expressing human M2
T3 sequence (P08172 1-466): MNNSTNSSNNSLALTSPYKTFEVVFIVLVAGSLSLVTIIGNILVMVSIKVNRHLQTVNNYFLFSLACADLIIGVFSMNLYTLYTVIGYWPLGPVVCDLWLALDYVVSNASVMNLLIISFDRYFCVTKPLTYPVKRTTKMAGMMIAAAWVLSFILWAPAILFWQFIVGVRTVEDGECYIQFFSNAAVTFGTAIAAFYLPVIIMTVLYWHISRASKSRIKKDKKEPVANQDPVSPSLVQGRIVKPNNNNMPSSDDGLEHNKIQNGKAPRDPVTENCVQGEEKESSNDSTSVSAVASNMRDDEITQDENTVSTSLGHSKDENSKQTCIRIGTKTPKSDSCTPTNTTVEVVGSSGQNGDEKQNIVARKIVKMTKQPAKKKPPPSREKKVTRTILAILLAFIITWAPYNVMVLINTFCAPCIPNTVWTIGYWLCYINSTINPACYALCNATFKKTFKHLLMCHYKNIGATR
Method: as §1, §2

[5] = target: human muscarinic M3 receptor (Homo sapiens, UniProt P20309); assay: Alphascreen Surefire phospho-ERK1/2 functional assay, M3; settings: for M3 % Emax cf. ACh / pEC50 M3: CHO cells stably expressing human M3; for M3 % Emax cf. ACh / Emax: Emax relative to ACh; for pEC50 M3: phospho-ERK1/2; for Emax: CHO, read-out: M3 % Emax cf. ACh, CHO cells stably expressing human M3
Method: as §1, §2

[6] = CHO cells stably expressing human M4
[7] = CHO cells stably expressing human M4, phospho-ERK1/2

Chain of human muscarinic M3 receptor (P20309 whole entry): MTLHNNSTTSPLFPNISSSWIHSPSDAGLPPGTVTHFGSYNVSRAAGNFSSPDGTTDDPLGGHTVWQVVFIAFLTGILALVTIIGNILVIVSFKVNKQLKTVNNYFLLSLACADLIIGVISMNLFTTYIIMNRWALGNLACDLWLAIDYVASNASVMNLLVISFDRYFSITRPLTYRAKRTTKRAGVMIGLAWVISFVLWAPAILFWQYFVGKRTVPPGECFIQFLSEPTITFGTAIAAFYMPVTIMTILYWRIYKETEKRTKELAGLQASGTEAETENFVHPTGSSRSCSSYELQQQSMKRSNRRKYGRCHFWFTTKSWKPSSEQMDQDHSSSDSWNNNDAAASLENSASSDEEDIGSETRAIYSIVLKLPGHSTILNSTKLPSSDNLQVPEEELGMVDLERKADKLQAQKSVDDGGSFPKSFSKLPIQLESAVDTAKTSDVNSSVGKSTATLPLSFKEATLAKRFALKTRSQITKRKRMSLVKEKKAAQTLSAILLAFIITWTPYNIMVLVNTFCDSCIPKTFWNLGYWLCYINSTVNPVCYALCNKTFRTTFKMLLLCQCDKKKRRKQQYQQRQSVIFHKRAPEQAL

Row | M1 % Emax cf. ACh [2] | EC50 [2] | M4 % Emax cf. ACh [3, 6] | EC50 [3, 7] | M2 % Emax cf. ACh [4] | pEC50 M2 [4] | M3 % Emax cf. ACh [5] | pEC50 M3 [5] | Emax [2] | Emax [3] | Emax [4] | EC50 [4] | EC50 [5] | Emax [5] | pEC50 M4 [3, 7] | SMILES | d-amphetamine induced hyperactivity [1]
1 | – | – | – | – | – | – | – | – | – | – | – | – | – | – | – | CCCCCCOc1nsnc1C1=CCCN(C)C1 [xanomeline] | significantly reduce
2 | (90) % | 0.0631 µM | (76) % | 0.00631 µM | (20) % | <4.7 | (17) % | <4.7 | – | – | – | – | – | – | – | CCC1NC(=O)CC12CCN(C1CC3(CCN(C(=O)OC)C3)C1)CC2 (single isomer, unassigned) [3-4 Isomer 4] | –
3 | – | 0.501 µM | – | 0.1 µM | – | – | – | – | 56% | 77% | 3% | > 20 µM | > 20 µM | 11% | – | CCOC(=O)N1CCC2(CC(N3CCC4(CC3)OC(=O)N(OC)C4CC)C2)C1 (mixture of isomers) [4-48 mixture of diastereomers] | –
4 | (40) % | 0.2 µM | (43) % | 0.0501 µM | – | – | (3) % | – | – | – | 7% | > 20 µM | > 20 µM | – | – | CCOC(=O)N1CCC2(CC(N3CCC4(CC3)OC(=O)N3CCCC34)C2)C1 (single isomer, unassigned) [4-44 Isomer 3] | –
5 | (97) % | 0.158 µM | (59) % | 0.0316 µM | – | – | – | – | – | – | 10% | > 20 µM | > 20 µM | 4% | – | CCOC(=O)N1CCC2(CC(N3CCC4(CC3)OC(=O)N(C)C4CC)C2)C1 (single isomer, unassigned) [4-20 Isomer 3] | –
6 | – | 0.0631 µM | – | 0.02 µM | – | – | – | – | 109% | 114% | 0% | > 20 µM | > 20 µM | 10% | – | CCOC(=O)N1CCC2(CC(N3CCC4(CC3)CC(=O)NN4CC)C2)C1 (single isomer, unassigned) [6-2 Isomer 2] | –
7 | – | 0.126 µM | – | 0.316 µM | – | – | – | – | 92% | 50% | 143% | > 20 µM | > 20 µM | 5% | – | CCOC(=O)N1CCC2(CC(N3CCC4(CC3)CNC(=O)N4)C2)C1 (single isomer, unassigned) [5-2 Isomer 2] | –
8 | – | 0.0251 µM | – | 0.00316 µM | – | – | – | – | 96% | 108% | 16% | > 20 µM | > 20 µM | 10% | – | CCOC(=O)N1CCC2(CC(N3CCC4(CC3)CC(=O)NC4CC)C2)C1 (single isomer, unassigned) [3-5 Isomer 2] | –
9 | – | 7.94 µM | – | 0.0398 µM | – | – | – | – | 37% | 109% | 4% | > 20 µM | > 20 µM | 6% | – | CCOC(=O)N1CCC2(CC(N3CCC4(CC3)OC(=O)N(CCF)C4(C)C)C2)C1 (single isomer, unassigned) [4-40 Isomer 2] | –
10 | – | 0.0316 µM | – | 0.00398 µM | – | – | – | – | 89% | 100% | 20% | > 20 µM | > 20 µM | 26% | – | CCCN1NC(=O)CC12CCN(C1CC3(CCN(C(=O)OCC)C3)C1)CC2 (single isomer, unassigned) [6-4 Isomer 2] | –
11 | (107) % | 0.251 µM | (117) % | – | (15) % | <4.7 | (9) % | <4.7 | – | – | – | – | – | – | 6.9 | CCOC(=O)N1CC2(CC(N3CCC4(CC3)OC(=O)NC4CC)C2)C1 (single isomer, unassigned) [2-1 Isomer 1] | –
12 | – | 0.794 µM | – | 0.0631 µM | – | – | – | – | 56% | 88% | 87% | > 20 µM | > 20 µM | 8% | – | CCOC(=O)N1CCC2(CC(N3CCC4(CC3)OC(=O)N(CC3CC3)C4(C)C)C2)C1 (single isomer, unassigned) [4-39 Isomer 2] | –
13 | – | 0.2 µM | – | 0.01 µM | – | – | – | – | 65% | 30% | 1% | > 20 µM | > 20 µM | 1% | – | CCOC(=O)N1CC2(CCC(N3CCC4(CC3)OC(=O)N(CC)C4CC)C2)C1 (mixture of isomers) [8-2 mixture of diastereomers] | –
14 | – | 0.794 µM | – | > 20 µM | – | – | – | – | 62% | 47% | 4% | > 20 µM | > 20 µM | 14% | – | CCOC(=O)N1CCC2(CC(N3CCC4(CNC(=O)C4)C(F)C3)C2)C1 (single isomer, unassigned) [3-9 Isomer 2] | –
15 | (95) % | 0.2 µM | (80) % | 0.0316 µM | (3) % | – | – | – | – | – | – | > 20 µM | > 20 µM | 1% | – | CCOC(=O)N1CCC2(CC(N3CCC4(CC3)OC(=O)N(CC)C4CC)C2)C1 (single isomer, unassigned) [4-22 Isomer 3] | –
